Laboratory results as given in ChEMBL document CHEMBL1144019 (Bioorg Med Chem, 2008).
≈ marks a conversion by molar mass, not a printed value.

Experiments:
Assay type in all cases: functional
Streptococcus pneumoniae = assay: Antibacterial activity against penicillin-resistant Streptococcus pneumoniae SR-16675 by standard serial agar dilution method
Escherichia coli [1] = assay: Antibacterial activity against Toho 2 producing Escherichia coli by standard serial agar dilution method
Pseudomonas aeruginosa [2] = assay: Antibacterial activity against Pseudomonas aeruginosa SR-5393 by standard serial agar dilution method
Pseudomonas aeruginosa [3] = assay: Antibacterial activity against AmpC hyperproducing Pseudomonas aeruginosa SR24-12 by standard serial agar dilution method
Enterobacter cloacae [4] = assay: Antibacterial activity against AmpC producing Enterobacter cloacae SR-4321 by standard serial agar dilution method
Haemophilus influenzae [5] = assay: Antibacterial activity against beta-lactamase negative ampicillin-resistant Haemophilus influenzae SR-11435 by standard serial agar dilution method
Pseudomonas aeruginosa [6] = assay: Antibacterial activity against Pseudomonas aeruginosa SR24 by standard serial agar dilution method
Enterobacter cloacae [7] = assay: Antibacterial activity against Enterobacter cloacae ATCC 13047 by standard serial agar dilution method
Haemophilus influenzae [8] = assay: Antibacterial activity against Haemophilus influenzae ATCC 49766 by standard serial agar dilution method
Staphylococcus aureus = assay: Antibacterial activity against Staphylococcus aureus Smith by standard serial agar dilution method
Escherichia coli [9] = assay: Antibacterial activity against Escherichia coli SR-21003 by standard serial agar dilution method
Moraxella catarrhalis = assay: Antibacterial activity against Moraxella catarrhalis ATCC 43617 by standard serial agar dilution method
Pseudomonas aeruginosa [10] = assay: Antibacterial activity against imipenem-resistant Pseudomonas aeruginosa SR-6554 by standard serial agar dilution method

C[C@H](O/N=C(\C(=O)N[C@@H]1C(=O)N2C(C(=O)[O-])=C(C[n+]3cccc4c3ccn4CCNS(N)(=O)=O)CS[C@H]12)c1nc(N)sc1Cl)C(=O)O
MIC (Streptococcus pneumoniae): 2 µg/mL (≈ 2.75 µM) | MIC (Escherichia coli [1]): 2 µg/mL (≈ 2.75 µM) | MIC (Pseudomonas aeruginosa [2]): 4 µg/mL (≈ 5.49 µM) | MIC (Pseudomonas aeruginosa [3]): 4 µg/mL (≈ 5.49 µM) | MIC (Enterobacter cloacae [4]): 4 µg/mL (≈ 5.49 µM) | MIC (Haemophilus influenzae [5]): 0.063 µg/mL (≈ 0.0865 µM) | MIC (Pseudomonas aeruginosa [6]): 1 µg/mL (≈ 1.37 µM) | MIC (Enterobacter cloacae [7]): 0.5 µg/mL (≈ 0.687 µM) | MIC (Haemophilus influenzae [8]): 0.032 µg/mL (≈ 0.0439 µM) | MIC (Staphylococcus aureus): 2 µg/mL (≈ 2.75 µM) | MIC (Escherichia coli [9]): 0.25 µg/mL (≈ 0.343 µM) | MIC (Moraxella catarrhalis): 0.016 µg/mL (≈ 0.022 µM) | MIC (Pseudomonas aeruginosa [10]): 8 µg/mL (≈ 11 µM)

COC(=O)NCCn1ccc2c1ccc[n+]2CC1=C(C(=O)[O-])N2C(=O)[C@@H](NC(=O)/C(=N\O[C@@H](C)C(=O)O)c3nc(N)sc3Cl)[C@H]2SC1
MIC (Streptococcus pneumoniae): 4 µg/mL (≈ 5.66 µM) | MIC (Escherichia coli [1]): 4 µg/mL (≈ 5.66 µM) | MIC (Pseudomonas aeruginosa [2]): 8 µg/mL (≈ 11.3 µM) | MIC (Pseudomonas aeruginosa [3]): 8 µg/mL (≈ 11.3 µM) | MIC (Enterobacter cloacae [4]): 4 µg/mL (≈ 5.66 µM) | MIC (Haemophilus influenzae [5]): 0.063 µg/mL (≈ 0.0891 µM) | MIC (Pseudomonas aeruginosa [6]): 2 µg/mL (≈ 2.83 µM) | MIC (Enterobacter cloacae [7]): 1 µg/mL (≈ 1.41 µM) | MIC (Haemophilus influenzae [8]): 0.032 µg/mL (≈ 0.0453 µM) | MIC (Staphylococcus aureus): 4 µg/mL (≈ 5.66 µM) | MIC (Escherichia coli [9]): 0.5 µg/mL (≈ 0.707 µM) | MIC (Moraxella catarrhalis): 0.032 µg/mL (≈ 0.0453 µM) | MIC (Pseudomonas aeruginosa [10]): 16 µg/mL (≈ 22.6 µM)

CNCCn1ncc2c1ccc[n+]2CC1=C(C(=O)[O-])N2C(=O)[C@@H](NC(=O)/C(=N\O[C@@H](C)C(=O)O)c3nc(N)sc3Cl)[C@H]2SC1
MIC (Streptococcus pneumoniae): 4 µg/mL (≈ 6.02 µM) | MIC (Escherichia coli [1]): 4 µg/mL (≈ 6.02 µM) | MIC (Pseudomonas aeruginosa [2]): 4 µg/mL (≈ 6.02 µM) | MIC (Pseudomonas aeruginosa [3]): 8 µg/mL (≈ 12 µM) | MIC (Enterobacter cloacae [4]): 4 µg/mL (≈ 6.02 µM) | MIC (Haemophilus influenzae [5]): 0.125 µg/mL (≈ 0.188 µM) | MIC (Pseudomonas aeruginosa [6]): 1 µg/mL (≈ 1.51 µM) | MIC (Enterobacter cloacae [7]): 1 µg/mL (≈ 1.51 µM) | MIC (Haemophilus influenzae [8]): 0.125 µg/mL (≈ 0.188 µM) | MIC (Staphylococcus aureus): 4 µg/mL (≈ 6.02 µM) | MIC (Escherichia coli [9]): 1 µg/mL (≈ 1.51 µM) | MIC (Moraxella catarrhalis): 0.032 µg/mL (≈ 0.0482 µM) | MIC (Pseudomonas aeruginosa [10]): 16 µg/mL (≈ 24.1 µM)

CC(=O)NCCn1ccc2c1ccc[n+]2CC1=C(C(=O)[O-])N2C(=O)[C@@H](NC(=O)/C(=N\O[C@@H](C)C(=O)O)c3nc(N)sc3Cl)[C@H]2SC1
MIC (Streptococcus pneumoniae): 4 µg/mL (≈ 5.79 µM) | MIC (Escherichia coli [1]): 2 µg/mL (≈ 2.89 µM) | MIC (Pseudomonas aeruginosa [2]): 4 µg/mL (≈ 5.79 µM) | MIC (Pseudomonas aeruginosa [3]): 8 µg/mL (≈ 11.6 µM) | MIC (Enterobacter cloacae [4]): 4 µg/mL (≈ 5.79 µM) | MIC (Haemophilus influenzae [5]): 0.125 µg/mL (≈ 0.181 µM) | MIC (Pseudomonas aeruginosa [6]): 2 µg/mL (≈ 2.89 µM) | MIC (Enterobacter cloacae [7]): 0.5 µg/mL (≈ 0.723 µM) | MIC (Haemophilus influenzae [8]): 0.032 µg/mL (≈ 0.0463 µM) | MIC (Staphylococcus aureus): 4 µg/mL (≈ 5.79 µM) | MIC (Escherichia coli [9]): 0.25 µg/mL (≈ 0.362 µM) | MIC (Moraxella catarrhalis): 0.032 µg/mL (≈ 0.0463 µM) | MIC (Pseudomonas aeruginosa [10]): 16 µg/mL (≈ 23.1 µM)

C[C@H](O/N=C(\C(=O)N[C@@H]1C(=O)N2C(C(=O)[O-])=C(C[n+]3cccc4[nH]ccc43)CS[C@H]12)c1nc(N)sc1Cl)C(=O)O
MIC (Streptococcus pneumoniae): 2 µg/mL (≈ 3.3 µM) | MIC (Escherichia coli [1]): 1 µg/mL (≈ 1.65 µM) | MIC (Pseudomonas aeruginosa [2]): 2 µg/mL (≈ 3.3 µM) | MIC (Pseudomonas aeruginosa [3]): 4 µg/mL (≈ 6.6 µM) | MIC (Enterobacter cloacae [4]): 2 µg/mL (≈ 3.3 µM) | MIC (Haemophilus influenzae [5]): 0.032 µg/mL (≈ 0.0528 µM) | MIC (Pseudomonas aeruginosa [6]): 1 µg/mL (≈ 1.65 µM) | MIC (Enterobacter cloacae [7]): 0.25 µg/mL (≈ 0.413 µM) | MIC (Haemophilus influenzae [8]): 0.016 µg/mL (≈ 0.0264 µM) | MIC (Staphylococcus aureus): 1 µg/mL (≈ 1.65 µM) | MIC (Escherichia coli [9]): 0.25 µg/mL (≈ 0.413 µM) | MIC (Moraxella catarrhalis): 0.016 µg/mL (≈ 0.0264 µM) | MIC (Pseudomonas aeruginosa [10]): 8 µg/mL (≈ 13.2 µM)

CNCCn1ccc2c[n+](CC3=C(C(=O)[O-])N4C(=O)[C@@H](NC(=O)/C(=N\O[C@@H](C)C(=O)O)c5nc(N)sc5Cl)[C@H]4SC3)ccc21
MIC (Streptococcus pneumoniae): 4 µg/mL (≈ 6.03 µM) | MIC (Escherichia coli [1]): 2 µg/mL (≈ 3.02 µM) | MIC (Pseudomonas aeruginosa [2]): 2 µg/mL (≈ 3.02 µM) | MIC (Pseudomonas aeruginosa [3]): 4 µg/mL (≈ 6.03 µM) | MIC (Enterobacter cloacae [4]): 8 µg/mL (≈ 12.1 µM) | MIC (Haemophilus influenzae [5]): 0.125 µg/mL (≈ 0.188 µM) | MIC (Pseudomonas aeruginosa [6]): 1 µg/mL (≈ 1.51 µM) | MIC (Enterobacter cloacae [7]): 0.5 µg/mL (≈ 0.754 µM) | MIC (Haemophilus influenzae [8]): 0.032 µg/mL (≈ 0.0483 µM) | MIC (Staphylococcus aureus): 4 µg/mL (≈ 6.03 µM) | MIC (Escherichia coli [9]): 0.25 µg/mL (≈ 0.377 µM) | MIC (Moraxella catarrhalis): 0.032 µg/mL (≈ 0.0483 µM) | MIC (Pseudomonas aeruginosa [10]): 8 µg/mL (≈ 12.1 µM)

C[C@H](O/N=C(\C(=O)N[C@@H]1C(=O)N2C(C(=O)[O-])=C(C[n+]3cccc4c3ccn4CCOC(N)=O)CS[C@H]12)c1nc(N)sc1Cl)C(=O)O
MIC (Streptococcus pneumoniae): 2 µg/mL (≈ 2.89 µM) | MIC (Escherichia coli [1]): 2 µg/mL (≈ 2.89 µM) | MIC (Pseudomonas aeruginosa [2]): 2 µg/mL (≈ 2.89 µM) | MIC (Pseudomonas aeruginosa [3]): 4 µg/mL (≈ 5.77 µM) | MIC (Enterobacter cloacae [4]): 2 µg/mL (≈ 2.89 µM) | MIC (Haemophilus influenzae [5]): 0.063 µg/mL (≈ 0.0909 µM) | MIC (Pseudomonas aeruginosa [6]): 0.5 µg/mL (≈ 0.721 µM) | MIC (Enterobacter cloacae [7]): 0.25 µg/mL (≈ 0.361 µM) | MIC (Haemophilus influenzae [8]): 0.032 µg/mL (≈ 0.0462 µM) | MIC (Staphylococcus aureus): 2 µg/mL (≈ 2.89 µM) | MIC (Escherichia coli [9]): 0.25 µg/mL (≈ 0.361 µM) | MIC (Moraxella catarrhalis): 0.032 µg/mL (≈ 0.0462 µM) | MIC (Pseudomonas aeruginosa [10]): 8 µg/mL (≈ 11.5 µM)

C[C@H](O/N=C(\C(=O)N[C@@H]1C(=O)N2C(C(=O)[O-])=C(C[n+]3cccc4c3nc(N)n4C3CCNCC3)CS[C@H]12)c1nc(N)sc1Cl)C(=O)O
MIC (Streptococcus pneumoniae): 2 µg/mL (≈ 2.84 µM) | MIC (Escherichia coli [1]): 2 µg/mL (≈ 2.84 µM) | MIC (Pseudomonas aeruginosa [2]): 2 µg/mL (≈ 2.84 µM) | MIC (Pseudomonas aeruginosa [3]): 2 µg/mL (≈ 2.84 µM) | MIC (Enterobacter cloacae [4]): 2 µg/mL (≈ 2.84 µM) | MIC (Haemophilus influenzae [5]): 0.063 µg/mL (≈ 0.0893 µM) | MIC (Pseudomonas aeruginosa [6]): 0.5 µg/mL (≈ 0.709 µM) | MIC (Enterobacter cloacae [7]): 0.25 µg/mL (≈ 0.355 µM) | MIC (Haemophilus influenzae [8]): 0.016 µg/mL (≈ 0.0227 µM) | MIC (Staphylococcus aureus): 2 µg/mL (≈ 2.84 µM) | MIC (Escherichia coli [9]): 0.25 µg/mL (≈ 0.355 µM) | MIC (Moraxella catarrhalis): 0.016 µg/mL (≈ 0.0227 µM) | MIC (Pseudomonas aeruginosa [10]): 4 µg/mL (≈ 5.67 µM)

CNCCn1nnc2c1ccc[n+]2CC1=C(C(=O)[O-])N2C(=O)[C@@H](NC(=O)/C(=N\O[C@@H](C)C(=O)O)c3nc(N)sc3Cl)[C@H]2SC1
MIC (Streptococcus pneumoniae): 2 µg/mL (≈ 3.01 µM) | MIC (Escherichia coli [1]): 2 µg/mL (≈ 3.01 µM) | MIC (Pseudomonas aeruginosa [2]): 8 µg/mL (≈ 12 µM) | MIC (Pseudomonas aeruginosa [3]): 64 µg/mL (≈ 96.2 µM) | MIC (Enterobacter cloacae [4]): 8 µg/mL (≈ 12 µM) | MIC (Haemophilus influenzae [5]): 0.5 µg/mL (≈ 0.752 µM) | MIC (Pseudomonas aeruginosa [6]): 2 µg/mL (≈ 3.01 µM) | MIC (Enterobacter cloacae [7]): 0.5 µg/mL (≈ 0.752 µM) | MIC (Haemophilus influenzae [8]): 0.125 µg/mL (≈ 0.188 µM) | MIC (Staphylococcus aureus): 4 µg/mL (≈ 6.01 µM) | MIC (Escherichia coli [9]): 0.25 µg/mL (≈ 0.376 µM) | MIC (Moraxella catarrhalis): 0.032 µg/mL (≈ 0.0481 µM) | MIC (Pseudomonas aeruginosa [10]): 64 µg/mL (≈ 96.2 µM)

CNCCCc1cc[n+](CC2=C(C(=O)[O-])N3C(=O)[C@@H](NC(=O)/C(=N\O[C@@H](C)C(=O)O)c4nc(N)sc4Cl)[C@H]3SC2)cc1
MIC (Streptococcus pneumoniae): 4 µg/mL (≈ 6.27 µM) | MIC (Escherichia coli [1]): 4 µg/mL (≈ 6.27 µM) | MIC (Pseudomonas aeruginosa [2]): 4 µg/mL (≈ 6.27 µM) | MIC (Pseudomonas aeruginosa [3]): 8 µg/mL (≈ 12.5 µM) | MIC (Enterobacter cloacae [4]): 8 µg/mL (≈ 12.5 µM) | MIC (Haemophilus influenzae [5]): 0.25 µg/mL (≈ 0.392 µM) | MIC (Pseudomonas aeruginosa [6]): 1 µg/mL (≈ 1.57 µM) | MIC (Enterobacter cloacae [7]): 1 µg/mL (≈ 1.57 µM) | MIC (Haemophilus influenzae [8]): 0.125 µg/mL (≈ 0.196 µM) | MIC (Staphylococcus aureus): 8 µg/mL (≈ 12.5 µM) | MIC (Escherichia coli [9]): 1 µg/mL (≈ 1.57 µM) | MIC (Moraxella catarrhalis): 0.032 µg/mL (≈ 0.0501 µM) | MIC (Pseudomonas aeruginosa [10]): 16 µg/mL (≈ 25.1 µM)
